Source: the supplement of paper PMC10307832

Assays:
Assay in all cases: relative viability (nuclei count vs DMSO), 5 days (fraction); higher = more cells survive
[1] = compound: CCn1c(-c2nonc2N)nc2c(C#CC(C)(C)O)ncc(OC[C@H]3CCCNC3)c21 + CC1(C)CCC(c2ccc(Cl)cc2)=C(CN2CCN(c3ccc(C(=O)NS(=O)(=O)c4ccc(N[C@H](CCN5CCOCC5)CSc5ccccc5)c(S(=O)(=O)C(F)(F)F)c4)cc3)CC2)C1 [Navitoclax] (partner 0.5 µM)
Summary of the method: (§1)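 Relative viability equals treated-well nuclei counts divided by vehicle-well nuclei counts. Counts came from 4× images of lung cancer cell lines grown in 1536-well plates for 5 days after pin-tool dosing on the day after seeding. Dosing used one drug alone or a fixed anchor-drug dose plus five library-drug doses (not always all listed) in √10 steps, and values are medians of duplicate plates.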

[2] = compound: CCn1c(-c2nonc2N)nc2c(C#CC(C)(C)O)ncc(OC[C@H]3CCCNC3)c21 + CC(=O)Nc1cccc(-n2c(=O)n(C3CC3)c(=O)c3c(Nc4ccc(I)cc4F)n(C)c(=O)c(C)c32)c1 [Trametinib] (partner 0.02 µM)
Summary of the method: as §1

BAM7 + Foretinib = compound: CCOC1=CC=CC=C1N=NC2=C(NN(C2=O)C3=NC(=CS3)C4=CC=CC=C4)C [BAM7] + COc1cc2c(Oc3ccc(NC(=O)C4(C(=O)Nc5ccc(F)cc5)CC4)cc3F)ccnc2cc1OCCCN1CCOCC1 [Foretinib] (partner 0.25 µM)
Summary of the method: as §1

BAM7 + Vorinostat = compound: CCOC1=CC=CC=C1N=NC2=C(NN(C2=O)C3=NC(=CS3)C4=CC=CC=C4)C [BAM7] + O=C(CCCCCCC(=O)Nc1ccccc1)NO [Vorinostat] (partner 1 µM)
Summary of the method: as §1

Cell Line	relative viability ([1]; first compound 0.01 µM)	relative viability ([1]; first compound 0.03162 µM)	relative viability ([1]; first compound 0.1 µM)	relative viability ([1]; first compound 0.3162 µM)	relative viability ([1]; first compound 1 µM)	relative viability ([2]; first compound 0.01 µM)	relative viability ([2]; first compound 0.03162 µM)	relative viability ([2]; first compound 0.1 µM)	relative viability ([2]; first compound 0.3162 µM)	relative viability ([2]; first compound 1 µM)	relative viability (BAM7 + Foretinib; first compound 0.5 µM)	relative viability (BAM7 + Foretinib; first compound 5 µM)	relative viability (BAM7 + Foretinib; first compound 15.81 µM)	relative viability (BAM7 + Foretinib; first compound 50 µM)	relative viability (BAM7 + Vorinostat; first compound 0.5 µM)	relative viability (BAM7 + Vorinostat; first compound 5 µM)	relative viability (BAM7 + Vorinostat; first compound 15.81 µM)	relative viability (BAM7 + Vorinostat; first compound 50 µM)
HCC-827	1.03	0.985	1.06	1.03	1.04	0.532	0.5	0.546	0.504	0.462	0.967	1.05	1.03	0.998	0.806	1	1.01	0.789
HOP-62	0.997	0.942	1.04	0.951	1.05	0.366	0.367	0.41	0.387	0.364	1.25	1.2	1.05	1.09	0.682	0.661	0.591	0.694
IA-LM	0.76	0.66	0.929	0.576	0.313	–	–	–	–	–	1.36	1.2	1.03	1.21	0.874	1.03	0.389	0.553
LC-2-ad	0.56	0.417	0.579	0.419	0.487	0.9	0.93	0.91	0.89	0.933	0.908	0.911	0.829	0.908	0.695	0.737	0.707	0.656
LCLC-97TM1	–	0.337	0.475	0.641	0.328	0.172	0.232	0.216	0.191	0.198	0.975	0.963	0.935	0.883	0.941	0.878	–	0.763
LCLC-103H	–	–	–	–	–	0.615	0.686	0.66	0.642	0.675	0.693	0.741	0.739	0.777	0.781	0.804	0.764	0.781
LK-2	0.787	0.927	0.77	0.872	0.889	0.574	0.878	0.525	0.686	0.869	1.15	1.23	1.18	1.29	0.341	0.346	0.343	0.353
LOU-NH91	0.691	0.709	0.697	0.632	0.572	0.795	0.788	0.802	0.695	0.659	0.913	1.03	0.904	0.936	0.899	0.936	0.917	0.903
LU99A	0.714	0.959	0.841	0.776	0.807	0.517	0.611	0.6	0.524	0.525	0.787	0.888	0.828	0.843	0.512	0.54	0.488	0.553
